Measured values as given in Sander's compilation of Henry's law constants.
“And” between values parts separate entries of the source, which are not always exact repeats. Equal values may be shown once.

Key:
[1] = Henry solubility constant Hcp at 333 K (mol/(m3 Pa)); details: reference: Severit (1997)
[2] = Henry solubility constant Hcp at 284 K (mol/(m3 Pa)); details: reference: George et al. (1994b)
[3] = Henry solubility constant Hcp at 278 K (mol/(m3 Pa)); details: reference: De Bruyn et al. (1995a)
[4] = Henry solubility constant Hcp at 298.15 K (mol/(m3 Pa))
[5] = Henry solubility constant Hcp at 288 K (mol/(m3 Pa)); details: reference: Billitzer (1902)
[6] = Henry solubility constant Hcp at 311 K (mol/(m3 Pa)); details: reference: Grollman (1929)
[7] = Henry solubility constant Hcp at 283 K (mol/(m3 Pa)); details: reference: Pearson and McConnell (1975)
[8] = Henry solubility constant Hcp at 353 K (mol/(m3 Pa)); details: reference: St-Pierre et al. (2014)
[9] = Henry solubility constant Hcp at 303 K (mol/(m3 Pa)); details: reference: Richon et al. (1985)
[10] = Henry solubility constant Hcp at 301 K (mol/(m3 Pa)); details: reference: Nelson and Hoff (1968)
[11] = Henry solubility constant Hcp at 293 K (mol/(m3 Pa)); details: reference: Yu (1992)
[12] = Henry solubility constant Hcp at 297 K (mol/(m3 Pa)); details: reference: Nozière and Riemer (2003)
[13] = Henry solubility constant Hcp at 290 K (mol/(m3 Pa)); details: reference: Disselkamp et al. (1999)
[14] = Henry solubility constant Hcp at 275 K (mol/(m3 Pa)); details: reference: Katrib et al. (2001)
[15] = Henry solubility constant Hcp at 308 K (mol/(m3 Pa)); details: reference: Guo and Brimblecombe (2007)
[16] = Henry solubility constant Hcp at 313 K (mol/(m3 Pa)); details: reference: Vitenberg et al. (1974)
[17] = reference: Straver and de Loos (2005)
[18] = reference: Vitenberg et al. (1974)

[Cl][Hg][Cl] [mercury dichloride]
Henry solubility constant Hcp at 333 K [1]: 1000

O=C(Cl)C(F)(F)F [trifluoroacetylchloride]
Henry solubility constant Hcp at 284 K [2]: 0.02 | Henry solubility constant Hcp at 278 K [3]: 0.0027 | Henry solubility constant Hcp ([4]; reference: Mirabel et al. (1996)): 0.02

C#C [ethyne]
Henry solubility constant Hcp at 288 K [5]: 0.00051 | Henry solubility constant Hcp at 311 K [6]: 0.00033 | Henry solubility constant Hcp ([4]; reference: Gatterer (1926)): 0.00042 | Henry solubility constant Hcp ([4]; reference: Jadkar and Chaudhari (1980)): 0.0004 | Henry solubility constant Hcp ([4]; reference: Kremann and Hönel (1913)): 0.00037 | Henry solubility constant Hcp ([4]; reference: Maillard and Rosenthal (1952)): 0.00025 | Henry solubility constant Hcp ([4]; reference: Winkler (1906)): 0.00041

C=CCl [chloroethene]
Henry solubility constant Hcp at 283 K [7]: 8.5e-06 | Henry solubility constant Hcp ([4]; reference: Chen et al. (2012)): 0.00041 | Henry solubility constant Hcp ([4]; reference: Gossett (1987)): 0.00037

O=S=O [sulfur dioxide]
Henry solubility constant Hcp at 353 K [8]: 0.4 | Henry solubility constant Hcp ([4]; reference: Johnstone and Leppla (1934)): 0.012 | Henry solubility constant Hcp ([4]; reference: Schoenfeld (1855)): 0.014

CC(C)=O [propanone]
Henry solubility constant Hcp at 303 K [9]: 0.19 | Henry solubility constant Hcp at 301 K [10]: 0.31 | Henry solubility constant Hcp at 293 K [11]: 0.17 | Henry solubility constant Hcp at 297 K [12]: 0.27 | Henry solubility constant Hcp ([4]; reference: Benkelberg et al. (1995)): 0.27 | Henry solubility constant Hcp ([4]; reference: Betterton (1991)): 0.32 | Henry solubility constant Hcp ([4]; reference: Burnett (1963)): 0.28 | Henry solubility constant Hcp ([4]; reference: Chai et al. (2005)): 0.24 | Henry solubility constant Hcp ([4]; reference: Ioffe et al. (1984)): 0.2 | Henry solubility constant Hcp ([4]; reference: Ji and Evans (2007)): 0.26 | Henry solubility constant Hcp ([4]; reference: Lichtenbelt and Schram (1985)): 0.26 | Henry solubility constant Hcp ([4]; reference: Poulain et al. (2010)): 0.29 | Henry solubility constant Hcp ([4]; reference: Schoene and Steinhanses (1985)): 0.32 | Henry solubility constant Hcp ([4]; reference: Snider and Dawson (1985)): 0.25 | Henry solubility constant Hcp [4, 17]: 0.24 | Henry solubility constant Hcp ([4]; reference: Strekowski and George (2005)): 0.26 | Henry solubility constant Hcp [4, 18]: 0.25 and 0.32 | Henry solubility constant Hcp ([4]; reference: Vitenberg et al. (1975)): 0.25

ClBr [bromine chloride]
Henry solubility constant Hcp at 290 K [13]: 0.015 | Henry solubility constant Hcp at 275 K [14]: < 0.062 | Henry solubility constant Hcp ([4]; reference: Bartlett and Margerum (1999)): 0.0093

O=[N+]([O-])c1cccc(O)c1 [3-nitrophenol]
Henry solubility constant Hcp at 308 K [15]: 160

CCCC(C)=O [2-pentanone]
Henry solubility constant Hcp at 313 K [16]: 0.11 | Henry solubility constant Hcp at 301 K [10]: 0.092 | Henry solubility constant Hcp ([4]; reference: Chai et al. (2005)): 0.1 | Henry solubility constant Hcp ([4]; reference: Hawthorne et al. (1985)): 0.09 | Henry solubility constant Hcp ([4]; reference: Hovorka et al. (2019)): 0.13 | Henry solubility constant Hcp ([4]; reference: Ji and Evans (2007)): 0.16 | Henry solubility constant Hcp ([4]; reference: Kim et al. (2000)): 0.11 | Henry solubility constant Hcp [4, 17]: 0.086 | Henry solubility constant Hcp [4, 18]: 0.17
